Experiments:
[1] = Cytotoxicity against HSV-1 (herpes simplex virus); format: functional; conditions: Human alphaherpesvirus 1
Human alphaherpesvirus 1 = test: Antiviral activity against HSV-1 (herpes simplex virus); format: functional, organism-based
[2] = system: Human immunodeficiency virus 1; test: Antiviral activity against HIV-1 (human immunodeficiency virus type 1); format: functional, organism-based
[3] = Cytotoxicity against HIV-1 (human immunodeficiency virus type 1); format: functional; conditions: Human immunodeficiency virus 1

Compound	CC50 [1] [µM]	EC50 (Human alphaherpesvirus 1) [µM]	EC50 [2] [µM]	CC50 [3] [µM]
C=C[C@]1(CO)O[C@@H](n2cc(C)c(=O)[nH]c2=O)C[C@@H]1O	> 100	1.9	6.1	> 100
Nc1nc2c(ncn2COCCO)c(=O)[nH]1 [ACYCLOVIR]	> 100	–	–	–
C#C[C@]1(CO)O[C@@H](n2cc(C)c(=O)[nH]c2=O)C[C@@H]1O	> 100	6.8	0.83	> 100
Cc1cn([C@H]2C[C@@H]3OCC[C@]3(CO)O2)c(=O)[nH]c1=O	> 100	> 100	> 100	> 100
Cc1cn([C@H]2C[C@H](O)[C@](CO)(CCO)O2)c(=O)[nH]c1=O	> 100	> 100	> 4.7	4.7
Cc1cn([C@H]2C[C@H](N=[N+]=[N-])[C@@H](CO)O2)c(=O)[nH]c1=O [ZIDOVUDINE]	–	–	0.0017	16.5
CC[C@]1(CO)O[C@@H](n2cc(C)c(=O)[nH]c2=O)C[C@@H]1O	> 100	7.4	16.1	> 100

Reference: ChEMBL document CHEMBL1132504, “Nucleosides and nucleotides. 183. Synthesis of 4'alpha-branched thymidines as a new type of antiviral agent” (Bioorg Med Chem Lett, 1999)
